# Test results taken from patent US20140357512A1, “HISTONE DEACETYLASE (HDAC) BIOMARKERS IN MULTIPLE MYELOMA” (priority 2013, published 2014).
# Tested on: human myeloma cell line MM.1S
# Experiment: SILAC acetylated-lysine peptide profiling, HDAC inhibitor vs DMSO (light/heavy ratio)
# Format: cell-based
# Text: An embodiment of the invention comprises utilizing the SILAC method in order to quantitate changes in protein expression between two or more populations of cells. The SILAC method is a technique based on mass spectrometry that detects differences in protein abundance among samples using non-radioactive isotopic labeling. The SILAC method is known in the art, and described in detail in Ong et al., “Stable Isotope Labeling by Amino Acids in Cell Culture, SILAC, as a Simple and Accurate Approach to Expression Proteomics”, Molecular & Cellular Proteomics, vol. 1, pp. 376-386 (2002), which is incorporated herein by reference in its entirety.
# Briefly, the SILAC method involves growing two populations of cells in cell culture. The first population of cells is grown in growth media containing normal amino acids (“normal media”). The second population of cells is grown in media lacking a standard essential amino acid (such as lysine), but is then supplemented with a non-radioactive, isotopically labeled form of that essential amino acid (such as lysine labeled with ^13C atoms, rather than normal ^12C atoms), which is called “heavy media”. When the two populations of cells are each growing in the medium, they incorporate the amino acids into all of their proteins. The growth of cells maintained in the heavy media is no different from that in normal media. All peptides containing the heavy amino acids are heavier than their normal counterparts. The cells from each of the two populations of cells are lysed. The lysates from each of the two cell populations are then combined. The combined cell lysates are then analyzed by mass spectrometry. Pairs of chemically identical peptides of different stable isotope composition can be differentiated in a mass spectrometer due to their difference in mass. The ratio of peak intensities in the mass spectrum for such peptide pairs reflects the abundance ratio for the two proteins.
# This example describes SILAC studies that were performed to compare the effects of three different HDAC inhibitors (Compound A, Compound B, and tubastatin A) to a control on a human multiple myeloma cell line. The HDAC inhibitors were also compared amongst themselves to determine differences in their effects.
# A human myeloma cell line MM.1S was grown using either ^12C (light) or ^13C (heavy) lysine containing culture medium. The “heavy” cells were treated with DMSO as the control, and the “light” cells were treated with a single HDAC inhibitor at 37° C. for 6 hours. The heavy and light cells were lysed, and the lysates were mixed in 1:1 ratio and digested with the protease trypsin. The acetylated lysine containing peptides (due to the action of the HDAC inhibitor) in the digested peptide pool were captured by a non-specific anti-acetylated lysine antibody cocktail (the antibodies identify both light and heavy acetylated peptides), and subjected to mass spectrometry analysis in order to identify thousands of individual peptides.
# Thousands of peptides were identified in pairs (^12C and ^13C) due to their known mass differences. The amino acid sequence and quantitative ratio (Light/Heavy) of a given peptide in two differentially treated cell lysates were then determined and annotated with their possible protein (gene) sources.
# As stated above, three HDAC inhibitors (Compound A, Compound B, and Tubastatin A) were used. Thus, the SILAC method was performed three times, with a different HDAC inhibitor compared to a control each time. Accordingly, there are three pairs of quantitative data in the table below, i.e., Compound A:DMSO, Compound B:DMSO, and Tubastatin A:DMSO. A cut-off of 1.30 fold of change (increase or decrease) was then used to determine “changed” or “+” in the table, and any peptides with a fold of change less than 1.3 fold were determined to be “unchanged” or “0” in the table. Those peptides that were not identified were marked as “NA” in the table. […]
compound,measurement,setting,value
"O=C(CCCCCCNC(=O)c1cnc(N(c2ccccc2)c2ccccc2)nc1)NO [Compound A, 2-(diphenylamino)-N-(7-(hydroxyamino)-7-oxoheptyl)pyrimidine-5-carboxamide]",L/H ratio of acetylated peptide (ac)[…](ac)AAK (SEQ ID NO: 6),"VDAC3 [12], log 2 scale, drug vs DMSO",0.00
same,L/H ratio of acetylated peptide YK(ac)[…] (SEQ ID NO: 117),"VDAC3 [63], log 2 scale, drug vs DMSO",0.00
same,"light to heavy ratio (L/H ratio) of acetylated peptide, log 2 scale","VGIVGK(ac)YGTR (SEQ ID NO: 250), 60S ribosomal protein L37a [13], RPL37A",−0.44
same,L/H ratio of acetylated peptide TNEK(ac)VELQELNDR (SEQ ID NO: 122),"VIM [104], log 2 scale, drug vs DMSO",0.00
same,L/H ratio of acetylated peptide FANYIDK(ac)VR (SEQ ID NO: 118),"VIM [120], log 2 scale, drug vs DMSO",0.00
same,L/H ratio of acetylated peptide […](ac)GQGK (SEQ ID NO: 119),"VIM [139], log 2 scale, drug vs DMSO",0.00
same,L/H ratio of acetylated peptide SK(ac)[…] (SEQ ID NO: 121),"VIM [294], log 2 scale, drug vs DMSO",0.00
same,L/H ratio of acetylated peptide LQDEIQNMK(ac)EEMAR (SEQ ID NO: 120),"VIM [373], log 2 scale, drug vs DMSO",0.00
same,light to heavy ratio (L/H ratio) of acetylated peptide […](ac)QLFR (SEQ ID NO: 321),"Vesicle-trafficking protein SEC22b [38], SEC22B, drug:DMSO",1.00 log 2
same,"light to heavy ratio (L/H ratio), log 2 scale, acetylated peptide EK(ac)LQEEMLQR (SEQ ID NO: 762)","Vimentin [188], gene VIM, drug:DMSO",0.92
same,light to heavy ratio (L/H ratio) of acetylated peptide TLLIK(ac)TVETR (SEQ ID NO: 269),"Vimentin [445], VIM, drug:DMSO",0.45 log 2
same,light to heavy ratio (L/H ratio) of acetylated peptide IAAYK(ac)SILQER (SEQ ID NO: 531),"X-ray repair cross-complementing protein 5 [265], gene XRCC5, inhibitor:DMSO",−0.41 log 2
same,light to heavy ratio (L/H ratio) of acetylated peptide EEAIK(ac)FSEEQR (SEQ ID NO: 509),"X-ray repair cross-complementing protein 5 [648], gene XRCC5, inhibitor:DMSO",−0.60 log 2
same,light to heavy ratio (L/H ratio) of acetylated peptide FNNFLK(ac)ALQEK (SEQ ID NO: 545),"X-ray repair cross-complementing protein 5 [660], gene XRCC5, inhibitor:DMSO",0.39 log 2
same,light to heavy ratio (L/H ratio) of acetylated peptide […](ac)HFQD (SEQ ID NO: 355),"X-ray repair cross-complementing protein 6 [605], XRCC6, drug:DMSO",0.00 log 2
same,L/H ratio of acetylated peptide ALQEK(ac)VEIK (SEQ ID NO: 123),"XRCC5 [665], log 2 scale, drug vs DMSO",0.00
same,"light to heavy ratio (L/H ratio) of acetylated peptide, log 2 scale","YNCDK(ac)MICR (SEQ ID NO: 254), Ubiquitin-605 ribosomal protein L40 [93], UBA52",0.38
same,light to heavy ratio (L/H ratio) of acetylated peptide YFLDK(ac)TLTSR (SEQ ID NO: 293),"[3-methyl-2-oxobutanoate dehydrogenase [lipoamide]] kinase mitochondrial [192], BCKDK, drug:DMSO",0.68 log 2
same,L/H ratio of acetylated peptide,"[…](ac)MVAAK (SEQ ID NO: 491), Cyclic AMP-dependent transcription factor ATF-4 [267], ATF4",−1.00 log 2
same,L/H ratio of acetylated peptide,"[…](ac)YPLR (SEQ ID NO: 493), Isoform 1 of NADH-cytochrome b5 reductase 3 [42], CYB5R3",−1.00 log 2
same,light to heavy ratio (L/H ratio) of acetylated peptide SAYFAEK(ac)LYK (SEQ ID NO: 292),"annexin A4 [255], ANXA4, drug:DMSO",0.67 log 2
same,light to heavy ratio (L/H ratio) of acetylated peptide TLFVK(ac)[…] (SEQ ID NO: 511),"cDNA FLJ45706 fis clone FEBRA2028457 highly similar to Nucleolin [470], gene NCL, inhibitor:DMSO",−0.59 log 2
same,light to heavy ratio (L/H ratio) of acetylated peptide ILMSK(ac)PVLSGGTGR (SEQ ID NO: 291),"cDNA FLJ55380 highly similar to Protein kinase C-binding protein 1 [440], ZMYND8, drug:DMSO",0.67 log 2
same,light to heavy ratio (L/H ratio) of acetylated peptide YDGK(ac)WEVEEMK (SEQ ID NO: 274),"cDNA FLJ55574 highly similar to Calnexin [138], CANX, drug:DMSO",0.48 log 2
same,light to heavy ratio (L/H ratio) of acetylated peptide LNK(ac)PFLFDTK (SEQ ID NO: 327),"cDNA FLJ55574 highly similar to Calnexin [172], CANX, drug:DMSO",0.00 log 2
same,light to heavy ratio (L/H ratio) of acetylated peptide LIGK(ac)QGR (SEQ ID NO: 629),"cDNA FLJ56047 highly similar to A kinase anchor protein 1 mitochondrial [667], gene AKAP1, inhibitor:DMSO",0.49 log 2
same,light to heavy ratio (L/H ratio) of acetylated peptide LLASK(ac)SLLNR (SEQ ID NO: 322),"cDNA FLJ56303 highly similar to Translocon-associated protein subunit beta [46], SSR2, drug:DMSO",1.00 log 2
same,light to heavy ratio (L/H ratio) of acetylated peptide LPSSTK(ac)SGWPR (SEQ ID NO: 500),"cDNA FLJ75110 highly similar to Homo sapiens PHD finger protein 15 (PHF15) mRNA [38], gene PHF15, inhibitor:DMSO",−0.78 log 2
same,light to heavy ratio (L/H ratio) of acetylated peptide IINEVSK(ac)[…] (SEQ ID NO: 341),"cDNA FLJ77177 highly similar to Homo sapiens arginine-rich mutated in early stage tumors (ARMET) mRNA [97], MANF, drug:DMSO",0.00 log 2
same,light to heavy ratio (L/H ratio) of acetylated peptide TNVPVK(ac)LFAR (SEQ ID NO: 348),"cDNA FLJ77422 highly similar to Homo sapiens RNA binding protein autoantigenic (hnRNP-associated with lethal yellow homolog (mouse)) transcript variant 1 mRNA (Fragment) [165], RALY, drug:DMSO",0.00 log 2
same,light to heavy ratio (L/H ratio) of acetylated peptide EIAQEFK(ac)TDLR (SEQ ID NO: 337),"histone cluster 2 H3 pseudogene 2 [80], HIST2H3PS2, drug:DMSO",0.00 log 2
same,light to heavy ratio (L/H ratio) of acetylated peptide GSK(ac)[…] (SEQ ID NO: 265),"membrane-associated progesterone receptor component 2 [159], PGRMC2, drug:DMSO",0.43 log 2
same,light to heavy ratio (L/H ratio) of acetylated peptide SK(ac)SDPIMLLK (SEQ ID NO: 255),"pyruvate dehydrogenase E1 component subunit alpha somatic form mitochondrial isoform 2 precursor [351], PDHA1, drug:DMSO",0.39 log 2
same,light to heavy ratio (L/H ratio) of acetylated peptide VTNLLMLK(ac)GK (SEQ ID NO: 350),"regulator of differentiation 1 isoform 2 [64], ROD1, drug:DMSO",0.00 log 2
same,light to heavy ratio (L/H ratio) of acetylated peptide LTSLNVK(ac)YNNDK (SEQ ID NO: 590),"regulator of differentiation 1 isoform 2 [236], gene ROD1, inhibitor:DMSO",0.44 log 2
same,light to heavy ratio (L/H ratio) of acetylated peptide GWLK(ac)[…] (SEQ ID NO: 278),"triosephosphate isomerase isoform 2 [231], TPI1, TPI1P1, drug:DMSO",0.54 log 2
